Experiments:
in vivo [1] = experiment: in vivo; design: species or system Cynomolgus macaques; conditions: cynomolgus monkey, sc, 0.02 mg/kg
Method: (§1) The pharmacokinetic characteristics in mammals following intravenous injection and subcutaneous injection of the compounds were tested using standard protocols. In the experiment, the candidate compounds were formulated into clear solution, which was administered to Cynomolgus macaques by single subcutaneous injection (SC, 0.02 mpk). The vehicle for subcutaneous injection was citrate buffer solution (20 mM, pH=7). The whole blood was collected and processed to get the plasma. The drug concentration was analyzed by LC-MS/MS, and the pharmacokinetic parameters were calculated using Phoenix WinNonlin software.

GLP-1R = target: T1, GLP-1R (Homo sapiens, UniProt P43220); experiment: In vitro GLP-1R agonistic activity test (cAMP kit); type: cell-based; conditions: HEK293 host cells
T1 construct: host or cells: HEK293
Method: The cell lines were constructed by Wuxi […] (Shanghai) Co., Ltd. See details in Table 1 below. [table] [table] The test compounds were diluted at a 4-fold dilution factor in 10 points, starting from an initial concentration of 30 μM. The dilution was carried out by Bravo. • 1) 100 nL of compounds were transferred to an OptiPlate-384 plate by Echo. • 2) The OptiPlate-384 plate was centrifuged at 1000 rpm for 5 s. • 1) A GLP-1R/GIPR cell cryovial was placed in warm water at 37° C. for rapid thawing. • 2) The cell suspension was transferred into a 15 mL Transfer centrifugal tube and rinsed with 10 mL of HBSS gently. • 3) The centrifugal tube was centrifuged at 1000 rpm at room temperature for 1 min. • 4) The supernatant was discarded. • 5) The bottom cells were gently dispersed, then gently rinsed with 10 mL of HBSS, the centrifugal tube was centrifuged to settle the cells, and finally the cells were resuspended in an experimental buffer. • 6) Cell density and viability were measured by Vi-cell. • 7) The GLP-1R/GIPR cells were diluted with the experimental buffer to a concentration of 2.0*10^5/mL. • 8) […] of the diluted cell suspension was transferred into the OptiPlate-384 plate. • 9) Incubation was performed at room temperature for 30 min. • 1) 10 μL of 800 nM gradient diluted cAMP standard was added into the empty wells of the OptiPlate-384 plate. • 2) 10 μL of cAMP assay reagent was added. • 3) The OptiPlate-384 plate was covered with TopSeal-A film and incubated at room temperature for 60 min. The TopSeal-A film was removed, and readout was performed on En Vision.

in vivo [2] = experiment: in vivo; design: species or system SD rats; conditions: rat, sc, 0.048 mg/kg; for Cmax: Sprague-Dawley
Method: as §1, with “rodent animals” for “mammals”, “following” for “following intravenous injection and”, “rats” for “Cynomolgus macaques”, “0.048” for “0.02”, “for” for “for subcutaneous”

human plasma albumin = type: in vitro ADME
Method: (§2) To study the binding of the test compounds to human/mouse plasma albumin. • 1. Blank matrix preparation: On the day of the experiment, the plasma was thawed in cold water and centrifuged at 3220 rpm for 5 min to remove all the blood clots. The pH of the resulting plasma was measured and adjusted to 7.4±0.1 with 1% of phosphoric acid or 1 N of sodium hydroxide as desired. • 2. Dilution of the test compounds: the test compounds were dissolved in dimethyl sulfoxide (DMSO) to prepare stock solutions of 10 mM and 2 mM, respectively. 2 μL of the stock solution (2 mM) was diluted with 98 μL of DMSO to obtain a working solution of 40 μM. 10 μL of the stock solution was diluted with 240 μL of DMSO to obtain a working solution of control compounds of 400 μM. A working solution of the compounds (5 μL) was mixed evenly with a blank matrix (995 μL) at a ratio of 1:200 to prepare a loading matrix. • 3. Analytical procedure • 3.1 Equal amounts of 30 μL of the loading matrix (n=2) were transferred into a sample collection plate to prepare Time 0 (T0) samples for residue determination. The samples were immediately matched with corresponding blank buffer to a final volume of 60 μL, with a volume ratio of plasma (the loading matrix) to buffer being 1:1 in each well. Then, into the T0 samples of the test compounds were respectively added 60 μL of 4% H3PO4 in H2O and 480 μL of stop solution containing internal standard. They were then stored at 2° C. to 8° C. together with other samples for further treatment. • 3.2 The remaining plasma samples were pre-incubated in a carbon dioxide incubator at 37±1° C. for 30 min. Protein-free samples (F samples) were prepared. Matrix-loaded samples (230 μL) were all transferred into polycarbonate tubes (n=2) and ultracentrifuged at 37° C. and 155,000×g (35000 rpm) for 4 h. • 3.3 To prepare T samples (test samples), an additional matrix-containing sample was transferred into a separate 96-well plate (sample incubation plate) and incubated at 37° C. for 4 h. • 3.4 At the end of centrifugation, 30 μL of protein-free samples (F samples) and 30 μL of T samples were taken from the second layer (beneath the upper layer) of the supernatant and transferred into a new sample collection plate. Each sample was mixed with corresponding blank buffer or matrix to a final volume of 60 μL, and the blank matrix:buffer volume ratio is 1:1. Into all the samples were added 60 μL of 4% H3PO4 solution in water and 480 μL of stop solution containing internal standard. The mixture was centrifuged at 4000 rpm for 20 min. 100 μL of supernatant for each sample was taken for LC-MS/MS analysis.

mouse plasma albumin = type: in vitro ADME
Method: as §2

T1 sequence (P43220 24-463, species assumed): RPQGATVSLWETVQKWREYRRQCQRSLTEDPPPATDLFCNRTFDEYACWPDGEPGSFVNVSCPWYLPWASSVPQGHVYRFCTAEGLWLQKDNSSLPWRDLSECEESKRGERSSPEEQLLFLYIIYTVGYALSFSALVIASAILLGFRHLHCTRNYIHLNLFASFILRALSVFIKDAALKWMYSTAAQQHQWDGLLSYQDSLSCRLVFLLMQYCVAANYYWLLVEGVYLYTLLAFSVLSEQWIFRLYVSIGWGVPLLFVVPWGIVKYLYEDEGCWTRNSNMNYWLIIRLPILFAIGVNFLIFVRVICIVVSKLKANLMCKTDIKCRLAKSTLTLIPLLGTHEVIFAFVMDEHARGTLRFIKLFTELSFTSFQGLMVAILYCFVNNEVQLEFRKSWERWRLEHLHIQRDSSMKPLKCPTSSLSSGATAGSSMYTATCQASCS

Row | AUC(0-t) (in vivo [1]) | Cmax (in vivo [1]) | Tmax (in vivo [1]) | half-life (in vivo [1]) | EC50 (GLP-1R; with 1% HSA) | EC50 (GLP-1R; without 1% HSA) | Cmax (in vivo [2]) | AUC(0-t) (in vivo [2]) | Tmax (in vivo [2]) | half-life (in vivo [2]) | PPB % unbound (H/M), H (human plasma albumin) | PPB % unbound (H/M), M (mouse plasma albumin) | Tmax (in vivo [2]; SD) | SMILES
1 | 4.47 µM·h | 36 nM | 24 h | 100 h | 7.63 nM | 0.036 nM | 28 nM | 1.15 µM·h | 16 h | 21 h | NA/NA | NA/NA | – | CC[C@H](C)[C@H](NC(=O)[C@H](CC(C)C)NC(=O)[C@H](Cc1c[nH]c2ccccc12)NC(=O)[C@H](CCC(=O)O)NC(=O)[C@@H](NC(=O)[C@H](Cc1ccccc1)NC(=O)[C@H](C)NC(=O)[C@@H]1CCCCNC(=O)CN(C(=O)COCCOCCNC(=O)COCCOCCNC(=O)CC[C@H](NC(=O)CCCCCCCCCCCCCCCCCCC(=O)O)C(=O)O)CC(=O)NCCCC[C@H](NC(=O)[C@H](CCCCN)NC(=O)[C@H](CC(=O)O)NC(=O)[C@H](CC(C)C)NC(=O)C(C)(C)NC(=O)[C@@H](NC(=O)[C@H](CO)NC(=O)[C@H](Cc2ccc(O)cc2)NC(=O)[C@H](CC(=O)O)NC(=O)[C@H](CO)NC(=O)[C@@H](NC(=O)[C@H](Cc2ccccc2)NC(=O)[C@@H](NC(=O)CNC(=O)[C@H](CCC(=O)O)NC(=O)C(C)(C)NC(=O)[C@@H](N)Cc2ccc(O)cc2)[C@@H](C)O)[C@@H](C)O)[C@@H](C)CC)C(=O)N[C@@H](C)C(=O)N[C@@H](CCC(N)=O)C(=O)N1)C(C)C)C(=O)N[C@@H](C)C(=O)NCC(=O)NCC(=O)N1CCC[C@H]1C(=O)N[C@@H](CO)C(=O)N[C@@H](CO)C(=O)NCC(=O)N[C@@H](C)C(=O)N1CCC[C@H]1C(=O)N1CCC[C@H]1C(=O)N1CCC[C@H]1C(=O)N[C@@H](CO)C(N)=O [WX-005]
2 | – | 37 nM | 24 h | – | – | 0.014 nM | 24 nM | – | – | – | NA/NA | NA/NA | 20 h | CC[C@H](C)[C@H](NC(=O)[C@H](CC(C)C)NC(=O)[C@H](Cc1c[nH]c2ccccc12)NC(=O)[C@H](CCC(=O)O)NC(=O)[C@@H](NC(=O)[C@H](Cc1ccccc1)NC(=O)[C@H](CCC(=O)O)NC(=O)[C@@H]1CCCCNC(=O)CN(C(=O)COCCOCCNC(=O)COCCOCCNC(=O)CC[C@H](NC(=O)CCCCCCCCCCCCCCCCCCC(=O)O)C(=O)O)CC(=O)NCCCC[C@H](NC(=O)[C@H](CCCCN)NC(=O)[C@H](CC(=O)O)NC(=O)[C@H](CC(C)C)NC(=O)C(C)(C)NC(=O)[C@@H](NC(=O)[C@H](CO)NC(=O)[C@H](Cc2ccc(O)cc2)NC(=O)[C@H](CC(=O)O)NC(=O)[C@H](CO)NC(=O)[C@@H](NC(=O)[C@H](Cc2ccccc2)NC(=O)[C@@H](NC(=O)CNC(=O)[C@H](CCC(=O)O)NC(=O)C(C)(C)NC(=O)[C@@H](N)Cc2ccc(O)cc2)[C@@H](C)O)[C@@H](C)O)[C@@H](C)CC)C(=O)N[C@@H](C)C(=O)N[C@@H](CCC(N)=O)C(=O)N1)C(C)C)C(=O)N[C@@H](C)C(=O)NCC(=O)NCC(=O)N1CCC[C@H]1C(=O)N[C@@H](CO)C(=O)N[C@@H](CO)C(=O)NCC(=O)N[C@@H](C)C(=O)N1CCC[C@H]1C(=O)N1CCC[C@H]1C(=O)N1CCC[C@H]1C(=O)N[C@@H](CO)C(N)=O [WX-009]

Source: US20240270810A1, “PREPARATION AND APPLICATION OF POLYPEPTIDE” (GUANGDONG RAYNOVENT BIOTECH CO., LTD., priority 2021, published 2024)
